Patent US8618101B2, “N-((1R,2S,5R)-5-(tert-butylamino)-2-((S)-3-(7-tert-butylpyrazolo[1,5-a][1,3,5]triazin-4-ylamino)-2-oxopyrrolidin-1-yl)cyclohexyl)acetamide, a dual modulator of chemokine receptor activity, crystalline forms and processes” (Bristol-Myers Squibb Company, priority 2009, dated 2013)
Read-outs that look alike come from different tables or passages of the source.

How the values were obtained:
[1] = biological target: T1, CCR-5 (Homo sapiens, UniProt P51681); assay: CCR-5 calcium mobilization, HT1080/CCR-5 cells; type: cell-based; conditions: MIP-1β 50 nM, read-out: CCR-5 ^2+ Flux IC50
T1 construct: human peripheral T cells was used as a source of CCR-5; endogenous in cells; host or cells: human peripheral T cells from donors pre-screened for high CCR-5 expression

[2] = Plasma levels of Example 1 and mouse MCP-1 in the 48-hour TG peritonitis model; type: in vivo; conditions: mouse, read-out: Concentration of free Example 1 in plasma (nM) (fold IC90 CCR-2 binding)
Protocol: For the 48-hour TG peritonitis study, Example 1 was dosed twice a day with the first dose one hour prior to TG injection. Total peritoneal cell counts were obtained on isolated cells by a cell counter. Cytospins were performed to determine differential leukocyte counts. The cells were stained for 3 minutes with Wright-Giemsa Stain (Sigma-Aldrich) and then rinsed with deionized water for 5 minutes. Differential counts were calculated based on a total of 200 cells counted per sample. Blood was also collected from the retro-orbital sinus at the end of each study in EDTA for determination of drug concentration.
(§1) The caveat for this estimation is that only CCR-2 and its major ligand MCP-1 were taken into consideration. The receptor occupancy of a ligand in the presence of a competitive inhibitor is defined by the Gaddum equation: […]

[3] = biological target: T1, CCR-5; assay: T cell CCR-5 binding assay, 125I-MIP-1β tracer; conditions: human peripheral T cells
From the text: The procedure used for T cell CCR-5 binding assay was similar to those for hPBMC CCR-2 binding assay except that human peripheral T cells was used as a source of CCR-5 (see below) and ^125I-MIP-1β as a tracer (Amersham).
(§2) Therefore, blood donors were pre-screened for high T-cell expression of CCR-5. hPBMCs were first isolated from human whole blood by standard protocol with Ficoll-Hypaque. Flow cytometric analysis was then used to measure CCR-5 expression on T cells following staining with anti-CCR-5 antibody plus anti-CD4 antibody or anti-CD8 antibody. Those blood donors in which >5% peripheral T cells (CD4^+ and CD8^+) express CCR-5 were requested to provide blood again for isolation of PBMCs and, subsequently, of T cells using a standard E-rosetting technique which relies on the unique ability of T cells to bind to sheep red blood cells (RBCs).

[4] = biological target: T2, human cardiac sodium channel, SCN5A (Homo sapiens, UniProt Q14524); assay: Sodium channel patch clamp; type: cell-based; conditions: read-out: Na+ channel patch clamp (% Inhib.)
T2 construct: expressed in transfected cells; host or cells: HEK-293
Protocol: Whole-cell patch-clamp was used to directly measure inward sodium currents in HEK-293 cells expressing the human cardiac sodium channel, SCN5A. The compound was tested at a protein-free aqueous buffer. For determining steady state inhibition, sodium currents were elicited every 5 seconds using the following voltage protocol: cells were held at a potential of −90 mV and stepped to −20 mV for 60 ms. Effects were calculated by measuring inhibition of peak current during the test pulse to −20 mV. Rate-dependence of inhibition was assessed by stimulation at frequencies of 1 Hz and 4 Hz.

[5] = Single-dose pharmacokinetics in rats; conditions: male, Sprague-Dawley, rat
Protocol: Male Sprague-Dawley rats (250-300 g) were used for the pharmacokinetic studies. Rats were fasted overnight prior to PO dosing and fed 4 h post dose. Blood samples (˜0.3 mL) were collected from the jugular vein into K2EDTA-containing tubes and then centrifuged at 4° C. (1500-2000×g) to obtain plasma. […] Serial blood samples were obtained at 0.17 (for IV only), 0.25, 0.5, 0.75, 1, 2, 4, 6, 8, and 24 h post dose. Plasma samples, obtained by centrifugation at 4° C. (1500-2000×g), were stored at −20° C. until analysis by LC/MS/MS.
The pharmacokinetic parameters were obtained by non-compartmental analysis of plasma concentration vs. time data (Kinetica software, Version 4.2, InnaPhase Corporation, Philadelphia, Pa.). The peak concentration (Cmax) and time for Cmax were recorded directly from experimental observations. The area under the curve from time zero to the last sampling time (AUC(0-T)) was calculated using a combination of linear and log trapezoidal summations. The total plasma clearance (CLTp), steady-state volume of distribution (Vss), apparent elimination half-life (T½) and mean residence time (MRT) were estimated after IV administration. Estimations of T½ was made using a minimum of 3 time points with quantifiable concentrations. The absolute oral bioavailability (F) was estimated as the ratio of dose-normalized AUC values following oral and IV doses.

[6] = biological target: CCR-2 (Homo sapiens, UniProt P41597); assay: In vivo receptor occupancy in blood of hCCR-2 KI mice (Gaddum equation); conditions: for % Example 1 bound CCR-2 / % free CCR-2 / % mouse MCP-1 bound CCR-2: 48 h
From the text: as §1
Since Example 1 is a competitive inhibitor of MCP-1 binding to CCR-2, the amounts of both mouse MCP-1/CCR-2 receptor complex and Example 1/CCR-2 receptor complex can be determined using the serum levels of both mouse MCP-1 and protein-unbound Example 1 in plasma. […] The fraction of mouse MCP-1/CCR-2 receptor complexes is determined using the form of the equation described above. To determine the fraction of Example 1/CCR-2 complexes the equation is re-defined as:
[formula] Finally, the amount of CCR-2 free is determined from: [CCR-2]total=[CCR-2]free+[mouse MCP-1/CCR-2]+[Example 1/CCR-2]

[7] = biological target: T3, human CCR-2 (Homo sapiens, UniProt P41597); assay: 125I-mouse MCP-1 binding to human CCR-2-expressing cells (hPBMCs); parameters: hPBMCs were isolated from human leukopak; host or cells: human peripheral blood mononuclear cells; conditions: read-out: in vitro IC50 for inhibition of 125I-mouse MCP-1 binding to human CCR-2-expressing cells (hPBMCs)
T3 sequence (P41597 1-360 isoform P41597-2): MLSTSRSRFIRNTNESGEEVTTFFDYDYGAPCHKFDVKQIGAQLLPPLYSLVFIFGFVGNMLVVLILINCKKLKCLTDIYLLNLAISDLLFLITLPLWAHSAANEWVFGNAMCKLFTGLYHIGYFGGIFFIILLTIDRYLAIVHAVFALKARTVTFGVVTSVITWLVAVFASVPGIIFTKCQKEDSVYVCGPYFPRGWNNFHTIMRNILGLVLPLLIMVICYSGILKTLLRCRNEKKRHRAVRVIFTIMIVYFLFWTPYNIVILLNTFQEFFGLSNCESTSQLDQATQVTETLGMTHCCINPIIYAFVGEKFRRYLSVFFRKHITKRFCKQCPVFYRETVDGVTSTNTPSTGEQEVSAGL

[8] = biological target: T3, human CCR-2; assay: CCR-2 calcium mobilization, THP-1 cells; type: cell-based; conditions: MCP-1 10 nM, read-out: CCR-2 Ca2+ Flux IC50
Protocol: All conditions were tested in duplicate.

[9] = biological target: T1, CCR-5; assay: CCR-5 GTP-γS exchange, CCR-5/HT1080 membranes; type: biochemical; conditions: MIP-1α/LD78β ligand
From the text: A similar procedure to the CCR-2 GTP-γS exchange procedure set forth above was adopted except that MIP-1α/LD78β was the ligand and the cell line was CCR-5/HT1080. MIP-1α/LD78β was used as the CCR-5 ligand because it provided a bigger signal to noise ratio than MIP-1β.

[10] = biological target: T1, CCR-5; assay: CCR-5 chemotaxis, MIP-1β-induced, peripheral T cells; type: cell-based
From the text: as §2
A similar procedure to that set forth above was adopted except that isolated peripheral T cells was used as CCR-5-expressing cells and MIP-1β (50 nM, PeproTech Inc.) was the ligand.

[11] = Parallel Artificial Membrane Permeability Assay (PAMPA); type: in vitro ADME; conditions: pH 7.4
From the text: The Parallel Artificial Membrane Permeability Assay (PAMPA) consists of a specially formulated lecithin-based lipid combination referred to as the gastrointestinal tract (GIT) lipid. The GIT lipid is used to form a membrane in a sandwich plate assembly similar to that used in the Caco-2 assays. The GIT lipid closely resembles in vivo membrane composition and performance as measured by standard compounds that are known to be passively absorbed in humans. […] The rate of passage of compounds through the PAMPA membrane is used to determine a permeability coefficient (Pc), which can be related to the in vivo passive permeability of the compound.
The permeability coefficient (Pc) of a particular compound is examined in a pH-dependent setting with apical and basolateral pH of 7.4. All experiments are conducted in triplicate determinations.
The PAMPA assay plate (donor side and acceptor side) was combined and allowed to incubate at room temperature for 4 hours. […] The donor, acceptor, reference, and blank plates were read in the SPECTRAMAX® UV plate reader. Data was captured by the pION software, which analyzes the spectra and generates Pc values.

[12] = 200 mg/kg (different study), oral BID

Sequence of CCR-2 (P41597 whole entry): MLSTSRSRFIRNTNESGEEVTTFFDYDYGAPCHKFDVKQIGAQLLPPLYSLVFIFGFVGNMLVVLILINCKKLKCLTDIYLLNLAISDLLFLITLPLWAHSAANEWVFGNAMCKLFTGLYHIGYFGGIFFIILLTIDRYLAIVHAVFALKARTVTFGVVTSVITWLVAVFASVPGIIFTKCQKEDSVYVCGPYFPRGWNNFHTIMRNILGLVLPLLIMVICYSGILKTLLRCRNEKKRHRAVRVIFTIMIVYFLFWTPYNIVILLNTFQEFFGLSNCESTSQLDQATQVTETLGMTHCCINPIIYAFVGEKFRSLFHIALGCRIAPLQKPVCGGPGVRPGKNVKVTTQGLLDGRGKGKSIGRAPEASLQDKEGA
T1 sequence (P51681 whole entry): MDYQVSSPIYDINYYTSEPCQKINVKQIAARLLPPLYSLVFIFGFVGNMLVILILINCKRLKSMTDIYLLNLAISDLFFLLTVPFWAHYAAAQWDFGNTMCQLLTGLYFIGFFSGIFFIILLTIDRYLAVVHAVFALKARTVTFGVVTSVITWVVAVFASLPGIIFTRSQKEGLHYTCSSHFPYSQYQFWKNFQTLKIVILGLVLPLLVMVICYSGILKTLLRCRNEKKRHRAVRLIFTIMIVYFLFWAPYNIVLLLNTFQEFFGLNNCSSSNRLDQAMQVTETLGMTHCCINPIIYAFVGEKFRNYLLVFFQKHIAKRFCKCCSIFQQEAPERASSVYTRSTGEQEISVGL
T2 sequence (Q14524 whole entry): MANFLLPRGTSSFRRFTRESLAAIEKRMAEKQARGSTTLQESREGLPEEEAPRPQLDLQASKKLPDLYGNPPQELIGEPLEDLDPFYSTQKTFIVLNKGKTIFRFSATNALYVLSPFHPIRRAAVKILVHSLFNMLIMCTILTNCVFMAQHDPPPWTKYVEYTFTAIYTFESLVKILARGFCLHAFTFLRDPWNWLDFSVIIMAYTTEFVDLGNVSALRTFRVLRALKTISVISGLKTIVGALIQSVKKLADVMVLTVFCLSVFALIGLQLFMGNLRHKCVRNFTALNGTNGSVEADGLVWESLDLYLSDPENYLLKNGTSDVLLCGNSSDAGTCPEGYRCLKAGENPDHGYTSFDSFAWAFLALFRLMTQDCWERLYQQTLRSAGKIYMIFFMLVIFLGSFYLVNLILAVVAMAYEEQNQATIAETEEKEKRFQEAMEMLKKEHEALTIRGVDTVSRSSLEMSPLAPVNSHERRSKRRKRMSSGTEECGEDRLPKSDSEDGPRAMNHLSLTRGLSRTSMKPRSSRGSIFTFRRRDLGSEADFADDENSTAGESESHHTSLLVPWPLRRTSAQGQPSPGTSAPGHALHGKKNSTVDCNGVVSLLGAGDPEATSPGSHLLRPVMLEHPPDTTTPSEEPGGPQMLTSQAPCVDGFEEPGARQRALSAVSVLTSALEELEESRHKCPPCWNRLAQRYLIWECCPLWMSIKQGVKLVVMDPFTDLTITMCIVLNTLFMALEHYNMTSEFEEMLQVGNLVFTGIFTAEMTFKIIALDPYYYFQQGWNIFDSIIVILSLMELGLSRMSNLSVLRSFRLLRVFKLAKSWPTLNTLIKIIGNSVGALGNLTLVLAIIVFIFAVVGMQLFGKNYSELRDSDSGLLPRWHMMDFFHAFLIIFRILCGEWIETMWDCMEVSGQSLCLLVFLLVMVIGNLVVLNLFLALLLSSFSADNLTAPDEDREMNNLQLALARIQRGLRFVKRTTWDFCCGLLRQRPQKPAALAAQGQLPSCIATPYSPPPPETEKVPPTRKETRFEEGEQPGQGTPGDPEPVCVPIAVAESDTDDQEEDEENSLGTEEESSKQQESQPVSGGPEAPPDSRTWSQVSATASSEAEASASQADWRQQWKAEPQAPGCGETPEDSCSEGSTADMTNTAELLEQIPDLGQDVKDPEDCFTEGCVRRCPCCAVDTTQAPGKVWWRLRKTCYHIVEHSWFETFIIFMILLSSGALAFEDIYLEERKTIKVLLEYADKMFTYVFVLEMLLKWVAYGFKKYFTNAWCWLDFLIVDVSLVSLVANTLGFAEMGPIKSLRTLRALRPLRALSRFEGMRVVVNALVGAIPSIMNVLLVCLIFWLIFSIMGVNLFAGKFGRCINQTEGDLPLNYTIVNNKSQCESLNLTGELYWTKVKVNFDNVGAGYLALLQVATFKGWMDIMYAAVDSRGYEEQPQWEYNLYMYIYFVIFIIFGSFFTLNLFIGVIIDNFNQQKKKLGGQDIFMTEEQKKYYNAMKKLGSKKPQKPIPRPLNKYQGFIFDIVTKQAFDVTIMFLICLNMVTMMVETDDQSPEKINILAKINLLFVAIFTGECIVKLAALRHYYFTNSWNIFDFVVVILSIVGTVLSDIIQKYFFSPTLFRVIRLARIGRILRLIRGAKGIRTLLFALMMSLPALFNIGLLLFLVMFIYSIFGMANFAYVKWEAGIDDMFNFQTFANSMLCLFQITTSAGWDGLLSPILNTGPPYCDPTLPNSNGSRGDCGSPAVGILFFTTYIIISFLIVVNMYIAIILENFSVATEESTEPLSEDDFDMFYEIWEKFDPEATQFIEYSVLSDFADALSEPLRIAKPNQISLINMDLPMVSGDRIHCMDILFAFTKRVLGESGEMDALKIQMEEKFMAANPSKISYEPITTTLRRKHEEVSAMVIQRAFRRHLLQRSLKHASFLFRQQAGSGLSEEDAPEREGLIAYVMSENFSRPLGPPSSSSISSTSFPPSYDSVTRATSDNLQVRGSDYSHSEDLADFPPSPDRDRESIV

CC(=O)N[C@@H]1C[C@H](NC(C)(C)C)CC[C@@H]1N1CC[C@H](Nc2ncnc3cc(C(C)(C)C)nn23)C1=O [Example 1, N-((1R,2 S,5R)-5-(tert-Butylamino)-2-((S)-3-(7-tert-butylpyrazolo[1,5-a][1,3,5]triazin-4-ylamino)-2-oxopyrrolidin-1-yl)cyclohexyl)acetamide]
IC50 [1]: 2 ± 1.4 nM | concentration at 48 h ([2]; hCCR-2 KI, oral, 10 mg/kg): 1.9 nM | concentration at 48 h ([2]; hCCR-2 KI, oral, 50 mg/kg): 16.6 nM | concentration at 48 h ([2]; hCCR-2 KI, oral, 200 mg/kg): 136 nM | concentration at 48 h ([2]; 160 mg/kg oral BID, 48 h, hCCR-2 KI mice): 62 nM | IC50 [3]: 3.6 ± 1.8 nM | inhibition at 10000 nM ([4]; 10,000 nM): 15 to 20% | inhibition at 30000 nM ([4]; 30,000 nM): 13 to 16% | clearance ([5]; in vivo, 2 mg/kg): 49.7 mL/min/kg | bioavailability ([5]; in vivo, 10 mg/kg): 94% | AUC ([5]; plasma, oral, 10 mg/kg): 6.5 µM·h | % Example 1 bound CCR-2 ([6]; 10 mg/kg oral BID): 48.15% | % free CCR-2 ([6]; 10 mg/kg oral BID): 50.68% | % mouse MCP-1 bound CCR-2 ([6]; 10 mg/kg oral BID): 1.17% | % Example 1 bound CCR-2 ([6]; 50 mg/kg oral BID): 88.74% | % free CCR-2 ([6]; 50 mg/kg oral BID): 10.69% | % mouse MCP-1 bound CCR-2 ([6]; 50 mg/kg oral BID): 0.56% | % Example 1 bound CCR-2 ([6]; 160 mg/kg oral BID): 96.72% | % free CCR-2 ([6]; 160 mg/kg oral BID): 3.12% | % mouse MCP-1 bound CCR-2 ([6]; 160 mg/kg oral BID): 0.16% | % Example 1 bound CCR-2 [6, 12]: 98.45% | % free CCR-2 [6, 12]: 1.44% | % mouse MCP-1 bound CCR-2 [6, 12]: 0.11% | CCR-2 occupancy at maximal inhibition of monocyte/macrophage infiltration ([6]; hCCR-2 KI mouse TG peritonitis): 98.5% | IC50 [7]: 5.8 ± 2.3 nM | IC50 [8]: 2.9 ± 1.5 nM | IC50 [9]: 6.1 ± 1.2 nM | IC50 [10]: 1.1 ± 0.6 nM | Papp at 4 h, 100 µM [11]: 33.6 ×10⁻⁶ cm/s
